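Five concentrations, 48 hours, 96-well plates. Abbreviation: GI50, concentration required for 50% inhibition of growth.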 Active and inactive are the calls of the source. No stated cut-off is given here; in the data, active = GI50 up to about 1.1 µM and inactive = higher.
Legend:
Experiment in all cases: inhibition of tumour cell growth, NCI panel, 48 h
A549 = system: A549
IGROV-1 = system: IGROV-1
LOX IMVI = system: LOX IMVI
NCI-H460 = system: NCI-H460
OVCAR-3 = system: OVCAR-3
RPMI-8226 = system: RPMI-8226
SF-295 = system: SF-295
SK-MEL-28 = system: SK-MEL-28
SK-MEL-2 = system: SK-MEL-2
SK-MEL-5 = system: SK-MEL-5
SNB-19 = system: SNB-19
SW-620 = system: SW-620
TK-10 = system: TK-10
U-251 = system: U-251
UO-31 = system: UO-31
SNB-75 = system: SNB-75
A498 = system: A498

Structure (SMILES) | GI50 (A549) | GI50 (IGROV-1) | GI50 (LOX IMVI) | GI50 (NCI-H460) | GI50 (OVCAR-3) | GI50 (RPMI-8226) | GI50 (SF-295) | GI50 (SK-MEL-28) | GI50 (SK-MEL-2) | GI50 (SK-MEL-5) | GI50 (SNB-19) | GI50 (SW-620) | GI50 (TK-10) | GI50 (U-251) | GI50 (UO-31) | GI50 (SNB-75) | GI50 (A498)
Cc1ccc(S(=O)(=O)OCOS(=O)(=O)c2ccc(C)cc2)cc1 | > 100 µM (inactive) | > 100 µM (inactive) | > 100 µM (inactive) | 58.1 µM (inactive) | > 100 µM (inactive) | > 100 µM (inactive) | > 100 µM (inactive) | > 100 µM (inactive) | > 100 µM (inactive) | > 100 µM (inactive) | > 100 µM (inactive) | > 100 µM (inactive) | > 100 µM (inactive) | > 100 µM (inactive) | > 100 µM (inactive) |  | 
O=C(Cl)c1cc([N+](=O)[O-])cc([N+](=O)[O-])c1 | > 100 µM (inactive) | > 100 µM (inactive) | > 100 µM (inactive) | > 100 µM (inactive) |  | > 100 µM (inactive) | > 100 µM (inactive) | > 100 µM (inactive) | > 100 µM (inactive) | > 100 µM (inactive) | > 100 µM (inactive) | > 100 µM (inactive) | > 100 µM (inactive) | > 100 µM (inactive) | > 100 µM (inactive) | > 100 µM (inactive) | 
COc1cccc(NC(=O)CC(=O)N2N=C(N3c4ccccc4Sc4ccccc43)CC2c2ccccc2)c1 (stereo not drawn) | > 100 µM (inactive) | > 100 µM (inactive) | > 100 µM (inactive) | > 100 µM (inactive) | > 100 µM (inactive) | > 100 µM (inactive) | > 100 µM (inactive) | > 100 µM (inactive) |  | > 100 µM (inactive) | > 100 µM (inactive) | > 100 µM (inactive) | > 100 µM (inactive) | > 100 µM (inactive) | > 100 µM (inactive) | > 100 µM (inactive) | > 100 µM (inactive)
CN(C)CCSc1cccc(-c2cc(-c3cccc(SCCN(C)C)c3)nc(SCCN(C)C)n2)c1 | 1.71 µM (inactive) | 3.37 µM (inactive) | 1.64 µM (inactive) | 1.85 µM (inactive) | 10.2 µM (inactive) |  | 2 µM (inactive) | 1.93 µM (inactive) | 7.96 µM (inactive) | 1.55 µM (inactive) |  | 1.87 µM (inactive) | 2.88 µM (inactive) | 1.91 µM (inactive) | 12.8 µM (inactive) | 2.95 µM (inactive) | 
CCOC(=O)N1CCc2cc(OC)c(OC)cc2/C1=C/c1ccc(OC)c(OC)c1 | 43.1 µM (inactive) | > 100 µM (inactive) | 52.2 µM (inactive) |  | 61.4 µM (inactive) | 19.3 µM (inactive) | 52.2 µM (inactive) | > 100 µM (inactive) | 51.6 µM (inactive) | 20.9 µM (inactive) | 58.3 µM (inactive) | 46.2 µM (inactive) | > 100 µM (inactive) | 44.5 µM (inactive) | 27.8 µM (inactive) | 37.9 µM (inactive) | 56.4 µM (inactive)
CC(=O)[O-].[O-]c1c(Cl)cc(Cl)cc1/C=N/Nc1ccccn1.[Zn+2] | 3.65 µM (inactive) | 1.96 µM (inactive) | 0.798 µM (active) | 1.38 µM (inactive) | 0.268 µM (active) | 0.325 µM (active) | 1.47 µM (inactive) | 1.57 µM (inactive) | 0.0601 µM (active) | 0.593 µM (active) | 3.86 µM (inactive) | 1.74 µM (inactive) |  | 3.12 µM (inactive) | 0.31 µM (active) | 4.99 µM (inactive) | > 100 µM (inactive)
O=C(O)C1CCCCN1c1ccccc1[N+](=O)[O-] (stereo not drawn) | > 100 µM (inactive) | > 100 µM (inactive) | > 100 µM (inactive) | > 100 µM (inactive) | > 100 µM (inactive) | > 100 µM (inactive) | > 100 µM (inactive) |  | > 100 µM (inactive) | > 100 µM (inactive) | > 100 µM (inactive) | > 100 µM (inactive) | > 100 µM (inactive) | > 100 µM (inactive) | > 100 µM (inactive) | > 100 µM (inactive) | 
O=C(Nc1cc([N+](=O)[O-])cc([N+](=O)[O-])c1)OC1C2CCC1C1OC1C2 (stereo not drawn) | > 50 µM (inactive) | > 50 µM (inactive) |  | > 50 µM (inactive) | 29.6 µM (inactive) | 22.6 µM (inactive) | > 50 µM (inactive) | > 50 µM (inactive) | > 50 µM (inactive) | 31.3 µM (inactive) | > 50 µM (inactive) | > 50 µM (inactive) | > 50 µM (inactive) | > 50 µM (inactive) | 19.9 µM (inactive) | 23.7 µM (inactive) | > 50 µM (inactive)
CCOC(=O)Cc1ccc2c(c1O)C(=O)c1c(ccc(CC(=O)OCC)c1O)C2=O | > 100 µM (inactive) |  | 27.9 µM (inactive) |  | 47.8 µM (inactive) | > 100 µM (inactive) | > 100 µM (inactive) | 96.2 µM (inactive) | > 100 µM (inactive) | 20.4 µM (inactive) | > 100 µM (inactive) | > 100 µM (inactive) | 31.9 µM (inactive) | 83.8 µM (inactive) | > 100 µM (inactive) | > 100 µM (inactive) | > 100 µM (inactive)

Source: ChEMBL document CHEMBL1201862, “PubChem BioAssay data set” (2004)
